Data from patent publication US12528783B2, “PqsR inverse agonists” (priority 2020, dated 2026).
Each block holds one compound with its values, some of them ahead of it.

How the values were obtained:
PqsR = molecular target: T1, PqsR (Pseudomonas aeruginosa, UniProt Q9I4X0); experiment: PqsR inverse agonistic activity, reporter gene assay in E. coli; format: cell-based
T1 construct: expressed in transfected cells; host or cells: Escherichia coli DH5a carrying pEAL08-2
Method: Inhibition of pqsR-dependent gene expression of test compounds was determined in an E. coli based-galactosidase reporter gene assay. Escherichia coli DH5a was transfected with pEAL08-2 plasmid encoding pqsR under control of promoter tac and β-galactosidase reporter gene lacZ under control of promoter pqsA. Antagonistic effects of compounds were evaluated in the presence of/in competition to 50 nM PQS. A positive control was used to ensure the reliability of individual assays. First, PQS was diluted in methanol and added to the wells of a glass coated 96-deep-well plate, and the solvent was evaporated. Then, compounds were added in 5 μL DMSO to final concentrations of 0.001-10 μM. Overnight cultures of E. coli DH5a×pEAL08-2 were diluted 1:100 in LB medium with ampicillin (50 μg/ml) and incubated at 37° C. with shaking until it reached an OD600 of 0.2. Finally, 995 μL of culture was added to each well and the β-galactosidase activity was determined by ortho-nitrophenyl-β-galactoside conversion in permeabilized cells after a 2.5 h incubation period (37° C., 180 rpm). OD600, OD420, and OD550 were measured using POLARstar Omega (BMG Labtech, Ortenberg, Germany), and the activity was expressed as ratio of the slope of B-galactosidase activity between basal control (no PQS) and solvent control. IC50 values of antagonists were determined by variation of the concentration of the test compounds.

[1] = test system: P. aeruginosa pyocyanin production; experiment: Pyocyanin assay; format: cell-based; settings: Pseudomonas aeruginosa, PA14, 16 h, read-out: IC50-value towards pyocyanin production, PA14 in PPGAS medium, 16 h
Method: Inhibition of P. aeruginosa pyocyanin production by compounds was determined photometrically as described before. In short, an overnight culture of PA14 in PPGAS medium was washed, diluted in medium to a start OD600 of 0.02, and incubated for 16 h (37° C., 200 rpm, relative humidity 75%) in the presence of test compounds. Then, cultures were extracted with chloroform and re-extracted with 0.2 M HCl. Protonated red colored pyocyanin was determined by measuring OD520 and normalizing to OD600.

[2] = Kinetic Turbidimetric Aqueous Solubility; format: physicochemical; settings: aqueous buffer, kinetic from dmso stock, PBS buffer, room temperature
Method: Kinetic Turbidimetric Aqueous Solubility at room temperature for 5 min. Test compound was diluted in PBS buffer to give a range of concentrations (typically 0.4, 2, 4, 20, 40, 100, and 200 μM, final DMSO concentration 2%) and incubated at room temperature for 5 min. Absorbance was measured at a wavelength of 620 nm and the solubility was estimated from the concentration of test compound that produces an increase in absorbance above the vehicle control (i.e., […]). Data was analyzed by fitting a four parameter sigmoidal function to the measured and normalized absorbances and AUC calculation providing access to Log S (decadic logarithm of the solubility).

T1 sequence (Q9I4X0 whole entry): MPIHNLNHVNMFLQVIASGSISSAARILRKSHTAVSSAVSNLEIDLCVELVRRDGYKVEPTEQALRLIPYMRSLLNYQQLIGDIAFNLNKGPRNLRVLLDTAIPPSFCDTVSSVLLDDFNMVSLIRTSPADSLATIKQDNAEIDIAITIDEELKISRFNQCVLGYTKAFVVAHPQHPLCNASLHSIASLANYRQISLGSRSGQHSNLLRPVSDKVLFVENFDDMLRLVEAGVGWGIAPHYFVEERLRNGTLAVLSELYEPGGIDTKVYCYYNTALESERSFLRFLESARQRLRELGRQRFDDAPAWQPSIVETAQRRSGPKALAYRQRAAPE

SMILES: Fc1ccccc1Nc1ccc(-n2cc(CNc3ccnc(C(F)(F)F)c3)nn2)cc1 [Compound 01]
- IC50 (PqsR): ≤ 50 nM
- IC50 [1]: 201 to 500 nM
- solubility at 5 min [2]: > 50 µM

SMILES: FC(F)(F)c1cc(NCc2cn(-c3cccc(Nc4ccccc4)c3)nn2)ccn1 [Compound 02]
- IC50 (PqsR): ≤ 50 nM
- IC50 [1]: ≤ 100 nM
- solubility at 5 min [2]: > 10 µM

SMILES: Fc1cccc(Nc2cccc(-n3cc(CNc4ccnc(C(F)(F)F)c4)nn3)c2)c1 [Compound 03]
- IC50 [1]: 101 to 200 nM
- solubility at 5 min [2]: > 10 µM

SMILES: Fc1ccc(Nc2cccc(-n3cc(CNc4ccnc(C(F)(F)F)c4)nn3)c2)cc1 [Compound 05]
- IC50 (PqsR): ≤ 50 nM
- IC50 [1]: 201 to 500 nM
- solubility at 5 min [2]: > 25 µM

SMILES: Fc1ccc(F)c(Nc2cccc(-n3cc(CNc4ccnc(C(F)(F)F)c4)nn3)c2)c1 [Compound 06]
- IC50 [1]: 101 to 200 nM
- solubility at 5 min [2]: > 10 µM

SMILES: Fc1ccc(F)c(Nc2cccc(-n3cc(CNc4cc(Cl)nc(C(F)(F)F)c4)nn3)c2)c1 [Compound 07]
- IC50 [1]: 101 to 200 nM
- solubility at 5 min [2]: > 25 µM

SMILES: Nc1cccc(-c2ncc(CNc3cc(Cl)nc(C(F)(F)F)c3)cn2)c1 [Compound 10]
- IC50 [1]: 501 to 1000 nM
- solubility at 5 min [2]: ≥ 100 µM

SMILES: Nc1cc(-c2ncc(CNc3cc(Cl)nc(C(F)(F)F)c3)cn2)ccc1Cl [Compound 11]
- IC50 [1]: 501 to 1000 nM
- solubility at 5 min [2]: > 25 µM

SMILES: FC(F)(F)c1cc(SCc2nc3cc(Cc4ccccc4)ccc3[nH]2)ccn1 [Compound 12]
- IC50 (PqsR): ≤ 50 nM
- IC50 [1]: 201 to 500 nM
- solubility at 5 min [2]: > 25 µM

SMILES: Nc1cc(SCc2nc3cc(Nc4ccccc4)ccc3[nH]2)cc(C(F)(F)F)n1 [Compound 13]
- IC50 [1]: 101 to 200 nM
- solubility at 5 min [2]: > 10 µM

SMILES: Nc1cc(SCc2nc3cc(Nc4ccccc4)ccc3[nH]2)nc(C(F)(F)F)n1 [Compound 14]
- IC50 (PqsR): ≤ 50 nM
- IC50 [1]: 101 to 200 nM
- solubility at 5 min [2]: > 25 µM

SMILES: FC(F)(F)c1cc(SCc2nc3ccc(Nc4ccccc4)cc3o2)ccn1 [Compound 15]
- IC50 (PqsR): 51 to 250 nM
- IC50 [1]: 201 to 500 nM

SMILES: FC(F)(F)c1cc(SCc2nc3ccc(Nc4ccccc4)cc3s2)ccn1 [Compound 16]
- IC50 (PqsR): 51 to 250 nM
- IC50 [1]: 501 to 1000 nM

SMILES: FC(F)(F)c1cc(SCc2nc3cc(NC4CCCCC4)ccc3[nH]2)ccn1 [Compound 17]
- IC50 (PqsR): 51 to 250 nM
- IC50 [1]: 501 to 1000 nM

SMILES: FC(F)(F)c1cc(SCc2nc3cc(Nc4ccccn4)ccc3[nH]2)ccn1 [Compound 18]
- IC50 [1]: 201 to 500 nM
- solubility at 5 min [2]: > 50 µM

SMILES: FC(F)(F)c1cc(SCc2nc3cc(Nc4cccnc4)ccc3[nH]2)ccn1 [Compound 19]
- IC50 [1]: 501 to 1000 nM
- solubility at 5 min [2]: ≥ 100 µM

SMILES: Nc1cc(SCc2nc3cc(Nc4cccnc4)ccc3[nH]2)cc(C(F)(F)F)n1 [Compound 20]
- IC50 [1]: 201 to 500 nM
- solubility at 5 min [2]: > 25 µM

- solubility at 5 min [2]: > 25 µM
SMILES: Fc1ccccc1Nc1ccc2[nH]c(CSc3ccnc(C(F)(F)F)c3)nc2c1 [Compound 22]

SMILES: Fc1cccc(Nc2ccc3[nH]c(CSc4ccnc(C(F)(F)F)c4)nc3c2)c1 [Compound 23]
- IC50 [1]: ≤ 100 nM
- solubility at 5 min [2]: > 10 µM

SMILES: Nc1cc(SCc2nc3cc(Nc4cccc(F)c4)ccc3[nH]2)cc(C(F)(F)F)n1 [Compound 24]
- IC50 [1]: ≤ 100 nM
- solubility at 5 min [2]: > 10 µM

- solubility at 5 min [2]: > 25 µM
SMILES: Fc1ccc(Nc2ccc3[nH]c(CSc4ccnc(C(F)(F)F)c4)nc3c2)cc1 [Compound 26]

SMILES: FC(F)(F)c1cc(SCc2nc3cc(Nc4ccccc4Cl)ccc3[nH]2)ccn1 [Compound 27]
- IC50 [1]: ≤ 100 nM

- solubility at 5 min [2]: > 10 µM
SMILES: FC(F)(F)c1cc(SCc2nc3cc(Nc4cccc(Cl)c4)ccc3[nH]2)ccn1 [Compound 28]

SMILES: Cc1ccccc1Nc1ccc2[nH]c(CSc3ccnc(C(F)(F)F)c3)nc2c1 [Compound 29]
- IC50 [1]: 101 to 200 nM

SMILES: Cc1cccc(Nc2ccc3[nH]c(CSc4ccnc(C(F)(F)F)c4)nc3c2)c1 [Compound 30]
- IC50 [1]: 101 to 200 nM
- solubility at 5 min [2]: > 10 µM

SMILES: Cc1ccc(Nc2ccc3[nH]c(CSc4ccnc(C(F)(F)F)c4)nc3c2)cc1 [Compound 31]
- IC50 [1]: 101 to 200 nM
- solubility at 5 min [2]: > 10 µM

SMILES: COc1cccc(Nc2ccc3[nH]c(CSc4ccnc(C(F)(F)F)c4)nc3c2)c1 [Compound 33]
- IC50 [1]: 101 to 200 nM
- solubility at 5 min [2]: > 10 µM

SMILES: COc1ccc(Nc2ccc3[nH]c(CSc4ccnc(C(F)(F)F)c4)nc3c2)cc1 [Compound 34]
- IC50 (PqsR): 51 to 250 nM
- solubility at 5 min [2]: > 25 µM

SMILES: NC(=O)c1ccccc1Nc1ccc2[nH]c(CSc3ccnc(C(F)(F)F)c3)nc2c1 [Compound 35]
- IC50 [1]: 101 to 200 nM
- solubility at 5 min [2]: > 50 µM

SMILES: FC(F)(F)Oc1ccccc1Nc1ccc2[nH]c(CSc3ccnc(C(F)(F)F)c3)nc2c1 [Compound 38]
- IC50 [1]: 201 to 500 nM

- solubility at 5 min [2]: > 25 µM
SMILES: Cc1ccc(Nc2ccc3[nH]c(CSc4ccnc(C(F)(F)F)c4)nc3c2)nc1 [Compound 40]

SMILES: Fc1cncc(Nc2ccc3[nH]c(CSc4ccnc(C(F)(F)F)c4)nc3c2)c1 [Compound 41]
- IC50 [1]: 201 to 500 nM
- solubility at 5 min [2]: > 50 µM

SMILES: Fc1cccc(F)c1Nc1ccc2[nH]c(CSc3ccnc(C(F)(F)F)c3)nc2c1 [Compound 42]
- IC50 (PqsR): ≤ 50 nM
- IC50 [1]: 101 to 200 nM
- solubility at 5 min [2]: > 25 µM

- solubility at 5 min [2]: > 25 µM
SMILES: Fc1cc(F)cc(Nc2ccc3[nH]c(CSc4ccnc(C(F)(F)F)c4)nc3c2)c1 [Compound 43]

- solubility at 5 min [2]: > 25 µM
SMILES: Fc1ccc(F)c(Nc2ccc3[nH]c(CSc4ccnc(C(F)(F)F)c4)nc3c2)c1 [Compound 44]

SMILES: Fc1cccc(Nc2ccc3[nH]c(CSc4ccnc(C(F)(F)F)c4)nc3c2)c1F [Compound 46]
- IC50 (PqsR): 51 to 250 nM
- IC50 [1]: 201 to 500 nM
- solubility at 5 min [2]: > 10 µM

SMILES: Fc1ccc(Nc2ccc3[nH]c(CSc4ccnc(C(F)(F)F)c4)nc3c2)cc1F [Compound 47]
- IC50 [1]: ≤ 100 nM
- solubility at 5 min [2]: > 10 µM

SMILES: Fc1c(Nc2ccc3[nH]c(CSc4ccnc(C(F)(F)F)c4)nc3c2)cccc1C(F)(F)F [Compound 48]
- IC50 [1]: 101 to 200 nM

SMILES: Fc1cc(C(F)(F)F)ccc1Nc1ccc2[nH]c(CSc3ccnc(C(F)(F)F)c3)nc2c1 [Compound 49]
- IC50 [1]: 101 to 200 nM
- solubility at 5 min [2]: > 25 µM

SMILES: Fc1ccc(C(F)(F)F)cc1Nc1ccc2[nH]c(CSc3ccnc(C(F)(F)F)c3)nc2c1 [Compound 50]
- IC50 [1]: 201 to 500 nM

SMILES: Cc1ccc(Nc2ccc3[nH]c(CSc4ccnc(C(F)(F)F)c4)nc3c2)cc1F [Compound 51]
- IC50 [1]: ≤ 100 nM

- solubility at 5 min [2]: > 25 µM
SMILES: COc1ccc(Nc2ccc3[nH]c(CSc4ccnc(C(F)(F)F)c4)nc3c2)cc1F [Compound 53]

SMILES: COc1cc(F)cc(Nc2ccc3[nH]c(CSc4ccnc(C(F)(F)F)c4)nc3c2)c1 [Compound 54]
- IC50 [1]: 201 to 500 nM
- solubility at 5 min [2]: > 25 µM

SMILES: Cc1c(F)cc(Nc2ccc3[nH]c(CSc4ccnc(C(F)(F)F)c4)nc3c2)cc1F [Compound 55]
- IC50 [1]: 101 to 200 nM
- solubility at 5 min [2]: > 10 µM

SMILES: Fc1cc(Nc2ccccc2)cc2nc(CSc3ccnc(C(F)(F)F)c3)[nH]c12 [Compound 56]
- IC50 (PqsR): ≤ 50 nM
- IC50 [1]: ≤ 100 nM
- solubility at 5 min [2]: > 25 µM

SMILES: Fc1cccc(Nc2cc(F)c3[nH]c(CSc4ccnc(C(F)(F)F)c4)nc3c2)c1 [Compound 57]
- IC50 [1]: ≤ 100 nM
- solubility at 5 min [2]: > 10 µM

SMILES: Fc1cc(Nc2cccnc2)cc2nc(CSc3ccnc(C(F)(F)F)c3)[nH]c12 [Compound 58]
- IC50 [1]: 201 to 500 nM
- solubility at 5 min [2]: > 50 µM

SMILES: Cc1cc(Nc2ccccc2)cc2nc(CSc3ccnc(C(F)(F)F)c3)[nH]c12 [Compound 59]
- IC50 (PqsR): ≤ 50 nM
- IC50 [1]: 101 to 200 nM
- solubility at 5 min [2]: > 10 µM

SMILES: FC(F)(F)c1cc(NCc2nc3cc(Nc4ccccc4)ccc3[nH]2)ccn1 [Compound 60]
- IC50 [1]: 201 to 500 nM
- solubility at 5 min [2]: ≥ 100 µM

SMILES: Fc1cccc(Nc2ccc3[nH]c(CNc4ccnc(C(F)(F)F)c4)nc3c2)c1 [Compound 61]
- IC50 (PqsR): ≤ 50 nM
- IC50 [1]: ≤ 100 nM
- solubility at 5 min [2]: ≥ 100 µM

- solubility at 5 min [2]: > 10 µM
SMILES: Fc1ccccc1Nc1ccc2[nH]c(COc3ccnc(C(F)(F)F)c3)nc2c1 [Compound 63]

SMILES: Fc1cccc(Nc2ccc3[nH]c(COc4ccnc(C(F)(F)F)c4)nc3c2)c1 [Compound 64]
- IC50 [1]: 201 to 500 nM
- solubility at 5 min [2]: > 25 µM

SMILES: FC(F)(F)c1cc(OCc2nc3cc(Nc4ccccc4Cl)ccc3[nH]2)ccn1 [Compound 65]
- IC50 [1]: 201 to 500 nM
